Source: patent publication US8952042B2, “FXR (NR1H4) binding and activity modulating compounds” (Phenex Pharmaceuticals AG, priority 2009, dated 2015)

Key:
[1] = UV photostability, irradiation at 254 nm, 1H NMR; format: physicochemical; details: 70 h UV irradiation at 254 nm
Protocol: The compounds of interest were dissolved using ethanol and their UV spectrum was analyzed to determine their λmax to establish an irradiation wavelength to be used in the study (see FIG. 2). The best wavelength for testing the UV stability of the —CH═CH— double bond was determined to be 254 nm. Further material of the compounds was then dissolved in deuterated ethanol and the ^1H NMRs (400 MHz) analyzed (T=0). Each sample was then recovered from the NMR tube and subjected to UV irradiation (254 nm) for 4 h, 15 h and 70 h. At the respective timepoints the individual samples were re-analyzed by ^1H NMR and the signal for the —CH═CH— protons evaluated to assess the percent of remaining intact double bond. Other changes in the chemical shift signals were also analyzed for further changes on the overall structure of the molecules.

[2] = test system: BSEP and SHP gene expression; assay: FXR target gene induction in mouse liver (qRT-PCR), high fat diet mice; format: in vivo, C57/bI6 mice; details: HFD mice, estimated 30 mg/kg daily in food, normalized to TBP
Protocol: C57/bI6 mice (Elevage Janvier, France) at the age of 8 weeks were put on a high fat diet (60% kcal from fat, Sniff, Soest, Germany, Cat. No. E15771-30 (Mod. Surwit)+0.5 cholesterol (Sigma-Aldrich, Germany) added) for 4 weeks. Baseline blood samples were taken after overnight starvation and fasting plasma glucose was determined using a Roche Accucheck device. In parallel L1-heparin plasma was generated for the determination of baseline total triglyceride (TG) and total cholesterol (TC) levels. Animals were maintained on the HFD+0.5% cholesterol diet for 8 weeks and weekly blood samples were taken for the monitoring of plasma TG and TC levels using routine enzymatic analysis kits (WAKO Diagnostics, Neuss, Germany). The test compounds were dissolved in 100% palm fat and then mixed into molten food for an estimated daily uptake of 30 mg/kg based on averaged food consumption in the 4 weeks HFD adaptation period. FIGS. 4 and 5 show the development of TG and TC values.
RNA was isolated using RNAzol RT Reagent (Fermentas) and mRNA levels determined by quantitative reverse-transcription polymerase chain reaction (qRT-PCR) using Absolute QPCR Rox Mix (Invitrogen) and a real-time PCR machine from Applied Biosystems (CA). Primer and probe sequences (5′ to 3′) used were: SHP, Fwd […]; Rev […]; probe 56-FAM/[…] and BSEP, Fwd […]; Rev […]; probe 56-FAM/ATGGCT […]. All samples were run in duplicate. […]

SMILES	behaviour in 1H NMR spectrum after prolonged UV irradiation [1]	gene expression of BSEP in liver [2] [fold]	gene expression of SHP in liver [2] [fold]
O=C(O)c1cccc(C2CC2c2ccc(OCc3c(-c4c(Cl)cccc4Cl)noc3C3CC3)cc2Cl)c1 (racemic) [Example 4, 3-(2-(2-chloro-4-((5-cyclopropyl-3-(2,6-dichlorophenyl)isoxazol-4-yl)methoxy)phenyl)-cyclopropyl)benzoic acid]	inert		
O=C(O)c1ccc(C2CC2c2ccc(OCc3c(-c4c(Cl)cccc4Cl)noc3C3CC3)cc2Cl)cc1 (racemic) [Example 12, 4-(2-(2-chloro-4-((5-cyclopropyl-3-(2,6-dichlorophenyl)isoxazol-4-yl)methoxy)phenyl)cyclopropyl)benzoic acid]		6	6
